Experimental data: patent US12077503B2, “Substituted cyclic amides and their use as herbicides” (FMC CORPORATION, priority 2015, dated 2024)

Columns and labels:
Type in all cases: in vivo
rice (Oryra sativa) = test: Test B flooded paddy test; conditions: Flood, 250 g ai/ha; 0 to 100 scale where 0 is no effect and 100 is complete control; 13 to 15 d
How it was run: (§1)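 Evaluation by eye, against controls, occurred 13–15 d post-treatment in a greenhouse, using a 0 (no effect) to 100 (complete control) scale. Application was into the paddy water, 3 cm deep over the soil, on 2-leaf plants.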

[1] = system: barnyardgrass (Echinochloa crus-galli); test: Test B flooded paddy test; conditions: Flood, 250 g ai/ha; 0 to 100 scale where 0 is no effect and 100 is complete control; 13 to 15 d
How it was run: as §1

[2] = system: sedge, umbrella (small-flower umbrella sedge, Cyperus difformis); test: Test B flooded paddy test; conditions: Flood, 250 g ai/ha; 0 to 100 scale where 0 is no effect and 100 is complete control; 13 to 15 d
How it was run: as §1

[3] = system: ducksalad (Heteranthera limosa); test: Test B flooded paddy test; conditions: Flood, 250 g ai/ha; 0 to 100 scale where 0 is no effect and 100 is complete control; 13 to 15 d
How it was run: as §1

[4] = system: pigweed (Amaranthus retroflexus); test: Test A preemergence; conditions: for Plant response rating, Pigweed: preemergence
[5] = system: giant foxtail (Setaria faberii); test: Test A preemergence
How it was run: (§2)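 Seeds sprayed preemergence with a directed soil spray, or plants at 2 to 10 cm height and one- to two-leaf stage sprayed postemergence, with test chemicals in a non-phytotoxic solvent mixture containing surfactant, in loam soil–sand blend. Injury rated visually against untreated controls after about 10 d in greenhouse, 0 (no effect) to 100 (complete control).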

[6] = system: barnyardgrass (Echinochloa crus-galli); test: Test A preemergence
How it was run: as §2

Kochia (Kochia scoparia) [7] = test: Test A preemergence
How it was run: as §2

[8] = system: ryegrass, Italian (Italian ryegrass, Lolium multiflorum); test: Test A preemergence; conditions: for Plant response rating, Ryegrass, Italian: preemergence
How it was run: as §2

[9] = system: ragweed (common ragweed, Ambrosia elatior); test: Test A preemergence; conditions: for Plant response rating, Ragweed: preemergence
How it was run: as §2

[10] = system: wheat (Triticum aestivum); test: Test A postemergence; conditions: postemergence
How it was run: as §2

[11] = system: pigweed (Amaranthus retroflexus); test: Test A postemergence; conditions: postemergence
How it was run: as §2

corn (Zea mays) = test: Test A postemergence; conditions: postemergence
How it was run: as §2

[12] = system: giant foxtail (Setaria faberii); test: Test A postemergence; conditions: postemergence
How it was run: as §2

[13] = system: barnyardgrass (Echinochloa crus-galli); test: Test A postemergence; conditions: postemergence
How it was run: as §2

Kochia (Kochia scoparia) [14] = test: Test A postemergence; conditions: postemergence
How it was run: as §2

[15] = system: blackgrass (Alopecurus myosuroides); test: Test A postemergence; conditions: postemergence
How it was run: as §2

[16] = system: ryegrass, Italian (Italian ryegrass, Lolium multiflorum); test: Test A postemergence; conditions: postemergence
How it was run: as §2

[17] = system: Galium (catchweed bedstraw, Galium aparine); test: Test A postemergence; conditions: postemergence
How it was run: as §2

[18] = system: ragweed (common ragweed, Ambrosia elatior); test: Test A postemergence; conditions: postemergence
How it was run: as §2

[19] = 125 g ai/ha, 0 to 100 scale (0 no effect, 100 complete control)
[20] = Preemergence, 500 g ai/ha, visual injury approx. 10 d
[21] = 125 g ai/ha, preemergence, 0 to 100 scale (0 no effect, 100 complete control)
[22] = 125 g ai/ha, visual injury rating on 0 to 100 scale (0 no effect, 100 complete control), approx. 10 d
[23] = 500 g ai/ha, 0 to 100 scale, 0 no effect, 100 complete control
[24] = 125 g ai/ha, visual rating after approx. 10 d, 0 to 100 scale where 0 is no effect and 100 is complete control
[25] = 500 g ai/ha, 0 to 100 scale, 0 = no effect, 100 = complete control
[26] = 125 g ai/ha, Preemergence, visual injury after approximately 10 d, 0 to 100 scale where 0 is no effect and 100 is complete control
[27] = 500 g ai/ha, preemergence, 0 to 100 scale, 0 = no effect, 100 = complete control
[28] = 125 g ai/ha, visual injury after approximately 10 d, 0 to 100 scale (0 no effect, 100 complete control)
[29] = 500 g ai/ha, visual injury, 0 to 100 scale (0 no effect, 100 complete control), approx. 10 d
[30] = 125 g ai/ha, visual rating after approx. 10 d, 0 to 100 scale (0 no effect, 100 complete control)

CN1CC(c2ccc(F)cc2)C(C(=O)Nc2ccccc2F)C1=O (stereo not drawn) [Compound 437]
Plant response rating, Rice (rice (Oryra sativa)): 0 | Plant response rating, Barnyardgrass [1]: 65 | Plant response rating, Sedge, Umbrella [2]: 0 | Plant response rating, Ducksalad [3]: 100 | Plant response rating, Pigweed [4, 19]: 20 | Pigweed plant response rating (0 to 100 scale, 0 is no effect, 100 is complete control) [4, 20]: 80 | Plant response rating, Foxtail, Giant [5, 21]: 90 | Foxtail, Giant plant response rating (0 to 100 scale, 0 is no effect, 100 is complete control) [5, 20]: 100 | Plant response rating, Barnyardgrass [6, 21]: 90 | Barnyardgrass plant response rating (0 to 100 scale, 0 is no effect, 100 is complete control) [6, 20]: 90 | Plant response rating, Kochia (Kochia (Kochia scoparia) [7]; [21]): 60 | Kochia plant response rating (0 to 100 scale, 0 is no effect, 100 is complete control) (Kochia (Kochia scoparia) [7]; [20]): 70 | Plant response rating, Ryegrass, Italian [8, 19]: 0 | Ryegrass, Italian plant response rating (0 to 100 scale, 0 is no effect, 100 is complete control) [8, 20]: 50 | Plant response rating, Ragweed [9, 19]: 0 | Ragweed plant response rating (0 to 100 scale, 0 is no effect, 100 is complete control) [9, 20]: 60 | Wheat plant response rating [10, 22]: 0 | Plant response rating, Wheat [10, 23]: 40 | Pigweed plant response rating [11, 22]: 0 | Plant response rating, Pigweed [11, 23]: 20 | Corn plant response rating (corn (Zea mays); [22]): 0 | Plant response rating, Corn (corn (Zea mays); [23]): 20 | Foxtail, Giant plant response rating [12, 22]: 90 | Plant response rating, Foxtail, Giant [12, 23]: 90 | Barnyardgrass plant response rating [13, 22]: 90 | Plant response rating, Barnyardgrass [13, 23]: 90 | Kochia plant response rating (Kochia (Kochia scoparia) [14]; [22]): 20 | Plant response rating, Kochia (Kochia (Kochia scoparia) [14]; [23]): 30 | Blackgrass plant response rating [15, 22]: 0 | Plant response rating, Blackgrass [15, 23]: 30 | Ryegrass, Italian plant response rating [16, 22]: 0 | Plant response rating, Ryegrass, Italian [16, 23]: 20 | Galium plant response rating [17, 22]: 30 | Plant response rating, Galium [17, 23]: 50 | Ragweed plant response rating [18, 22]: 0 | Plant response rating, Ragweed [18, 23]: 0

O=C(Nc1ccccc1F)C1C(=O)N(CC2CC2)CC1c1cccc(C(F)(F)F)c1 (stereo not drawn) [Compound 682]
Plant response rating, Rice (rice (Oryra sativa)): 0 | Plant response rating, Barnyardgrass [1]: 0 | Plant response rating, Sedge, Umbrella [2]: 0 | Plant response rating, Ducksalad [3]: 0 | Plant response rating, Pigweed [4, 24]: 0 | Plant response rating, Pigweed [4, 25]: 0 | Plant response rating, Foxtail, Giant [5, 26]: 90 | Plant response rating, Foxtail, Giant [5, 27]: 90 | Plant response rating, Barnyardgrass [6, 26]: 0 | Plant response rating, Barnyardgrass [6, 27]: 0 | Plant response rating, Kochia (Kochia (Kochia scoparia) [7]; [26]): 0 | Plant response rating, Kochia (Kochia (Kochia scoparia) [7]; [27]): 0 | Plant response rating, Ryegrass, Italian [8, 24]: 20 | Plant response rating, Ryegrass, Italian [8, 25]: 30 | Plant response rating, Ragweed [9, 24]: 0 | Plant response rating, Ragweed [9, 25]: 0 | Plant response rating, Wheat [10, 28]: 0 | Plant response rating, Wheat [10, 29]: 20 | Plant response rating, Pigweed [11, 28]: 0 | Plant response rating, Pigweed [11, 29]: 0 | Plant response rating, Corn (corn (Zea mays); [28]): 0 | Plant response rating, Corn (corn (Zea mays); [29]): 0 | Plant response rating, Foxtail, Giant [12, 28]: 20 | Plant response rating, Foxtail, Giant [12, 29]: 80 | Plant response rating, Barnyardgrass [13, 30]: 0 | Plant response rating, Barnyardgrass [13, 29]: 20 | Plant response rating, Kochia (Kochia (Kochia scoparia) [14]; [28]): 0 | Plant response rating, Kochia (Kochia (Kochia scoparia) [14]; [29]): 0 | Plant response rating, Blackgrass [15, 30]: 0 | Plant response rating, Blackgrass [15, 29]: 0 | Plant response rating, Ryegrass, Italian [16, 28]: 0 | Plant response rating, Ryegrass, Italian [16, 29]: 0 | Plant response rating, Galium [17, 28]: 0 | Plant response rating, Galium [17, 29]: 0 | Plant response rating, Ragweed [18, 28]: 0 | Plant response rating, Ragweed [18, 29]: 0
